Values joined by “and” are separate entries in the source; they are usually repeats but may differ in a detail not shown here. Equal values may be shown once.
Columns and labels:
[1] = test system: rats subjected to 4 hours coronary ligation; assay: Area at risk and infarct size after 4 hours coronary ligation (triphenyl tetrazolium chloride-Evan's blue staining); assay type: in vivo, rat
Method: Infarct size was determined by the triphenyl tetrazolium chloride-Evan's blue staining technique. The rat was sacrificed after its left descending coronary artery had been occluded for 4 hours. The weight of infarct tissue was expressed as a percentage of total ventricular weight or occluded zone. The difference in infarct size was statistically analyzed using unpaired Student's t-test. Table 4 Area at risk and infarct size in vehicle and THP-treated rats subjected to 4 hours coronary ligation
The difference in ischemic area and infarct size shown by staining technique after 4 hours of ischemia is evaluated. […] In the vehicle group, the necrotic area expresses either as a percentage of the area at risk (45.2±1.0%) or as a percentage of the total ventricle (19.8±2.2%), indicating the amount of cardiac tissue at risk becomes necrotic. Administration of THP reduces myocardial necrosis extension in a dose dependent manner. This reduction is observed either in the necrotic area/area at risk (38.1±5.0%, 29.0±2.5% and 10.7±1.8%/with 3.5x10^-7, 10^-6, 10^-5 g/kg of THP, respectively) or in the necrotic area/total ventricle (17.9+2.3%, 13.4±1.2% and 5.0±0.9% with 3.5x10^-7, 10^-6, 10^-5 g/kg of THP, respectively).

[2] = test system: plasma LDH; assay: Plasma LDH release at the end of ischemia or ischemia-reperfusion; assay type: in vivo, rats; conditions: for LDH (U/L) release, Ischemic / LDH (U/L) release, Reperfused: Operated
Method: Myocardial ischemia was performed by a temporary tightening of the silk ligature around the left main coronary artery. Reperfusion was achieved by releasing the tension applied to the ligature (operated groups). Sham operated animals underwent all surgical procedures, apart from the fact that the silk, passing around the left coronary artery, was not tied (sham groups). Animals were infused with a bolus of THP (3.5x10^-7, 3.5x10^-6, 3.5x10^-5 g/kg), L-NAME (N^∞-nitro-L-arginine methyl ester; 1x10^-3 g/kg) or vehicle (dimethyl sulfoxide/ NaCl 0.9%, 1:10^3; v/v) from a jugular vein 15 minutes before coronary occlusion. The coronary artery was occluded for 30 minutes or 5 minutes followed by 30 minutes reperfusion and with the animals then divided randomly in the following groups: (1) sham + vehicle; (2) sham + THP (3.5x10^-5g/kg); (3) operated + vehicle; (4) operated + THP (3.5x10^-7 g/kg); (5) operated + THP (3.5x10^-6 g/kg); (6) operated + THP (3.5x10^-5 g/kg); (7) operated + L-NAME (1x10^-3 g/kg) + THP (3.5x10^-5 g/kg). Before and during the ischemia or reperfusion period, heart rate (HR), blood pressure (BP) and ECG changes were recorded. Ventricular ectopic activity was evaluated according to the diagnostic criteria advocated in the Lambeth Convention. The incidence and duration of ventricular tachyarrhythmias, including ventricular tachycardia (VT) and ventricular fibrillation (VF), in surviving animals was determined. The Mann-Whitney rank-sum test was used to analyze the differences in the duration of VT and VF between vehicle and drug treated groups. The BP and HR changes between vehicle and drug treated rats in the arrhythmia study were analyzed by ANOVA (analysis of variance) followed by Bonferroni's test. The difference in the percentage incidence of VT, VF and mortality rate was analyzed with a Chi-square test. Table 2 Effect of THP on ischemia-induced arrhythmias in the in vivo anesthetized rat
Cellular damage was evaluated by measuring the plasma LDH. Arterial blood samples were drawn from the carotid catheter at the end of ischemia or ischemia-reperfusion, collected in heparinized tubes. The blood was kept at 4°C until it was centrifuged at 2000 xg for 15 minutes. The plasma was recovered and aliquots were used for determination of LDH activity with a commercial kit from Sigma. The deproteinized plasma samples were frozen and kept until analysis. NO was measured by the NO/ozone chemiluminescence technique described in Yanu F. et al., (1997) Clin. Chem. 43:657-662. The difference in plasma NO and LDH were analyzed statistically using unpaired Student's t-test. Table 5 Effects of THP on LDH (U/L) release
The biochemical indicator of cellular damage (LDH release) is determined in ischemia and the ischemia-reperfusion period. Low LDH activity can be seen in the control group (123.6±20.6 U/L) before occlusion. After the occlusion or occlusion-reperfusion, a large increase of the enzyme is found in the plasma of rats given operated-vehicle (500.5±81.4 U/L and 273.7±29.2 U/L, respectively). However, administration of THP attenuates LDH release with a dose-dependent manner during ischemia or ischemia-reperfusion (Table 5).

[3] = test system: inward sodium current; conditions: Su MJ, et al., Eur. J. Pharmacol., 1994; cited from earlier work

## COc1cc2c(cc1OC)-c1c(O)c(OC)cc3c1C(C2)N(C)CC3 (single isomer, unassigned; (+)) [THP, (+)-Thaliporphine]
[1]; THP 3.5x10^-5 g/kg
  Area at risk (% of ventricle): 46.9±0.5 % of ventricle
  Necrotic (% of Area at risk): 10.7±1.8 % of Area at risk
  Necrotic (% of ventricle): 5.0±0.9 % of ventricle
[1]; THP 3.5x10^-6 g/kg
  Area at risk (% of ventricle): 46.5±0.9 % of ventricle
  Necrotic (% of Area at risk): 29.0±2.5 % of Area at risk
  Necrotic (% of ventricle): 13.4±1.2 % of ventricle
[1]; THP 3.5x10^-7 g/kg
  Area at risk (% of ventricle): 47.0±0.6 % of ventricle
  Necrotic (% of Area at risk): 38.1±5.0 % of Area at risk
  Necrotic (% of ventricle): 17.9+2.3 % of ventricle and 17.9±2.3 % of ventricle
[2]; THP 3.5x10^-5 g/kg
  LDH (U/L) release, Ischemic: 132.2±33.2 U/L
  LDH (U/L) release, Reperfused: 143.8±11.7 U/L
[2]; THP 3.5x10^-6 g/kg
  LDH (U/L) release, Ischemic: 171.7±56.9 U/L
  LDH (U/L) release, Reperfused: 219.6±31.0 U/L
[2]; THP 3.5x10^-7 g/kg
  LDH (U/L) release, Ischemic: 349.5±55.0 U/L
  LDH (U/L) release, Reperfused: 202.2±30.4 U/L
[2]; Sham-operated, THP 3.5x10^-5 g/kg
  LDH (U/L) release, Non-ischemic: 92.6±7.5 U/L
[3]
  inward sodium current: inhibit

— EP1311486B1, “USES OF THALIPORPHINE OR ITS DERIVATIVES IN TREATMENT OF CARDIAC DISEASES AND PREPARATION OF SAME” (Lotus Pharmaceutical Co., Ltd., priority 2000, dated 2002)
